# Experimental data published in US7951232B2, “Surface coating compositions and methods” (Elevance Renewable Sciences, Inc., priority 2006, dated 2011).
# What was measured:
# [1] = system: Bacillus licheniformis ATCC 14580; assay: Growth inhibition in MRS medium (OD600); type: cell-based; conditions: 0.075% w/v 9-DA from K9-DA, pH not adjusted, listed as potassium 9-DA
# Procedure: (§1) Efficacy of the potassium salt of 9-DA was determined through incubation of the following organisms in the presence of varying concentrations of the potassium salt: Pseudomonas straminea ATCC 33636, Bacillus subtilis ATCC 6051, Bacillus licheniformis ATCC 14580, Bacillus cereus ATCC 14579, Pediococcus acidilactici ATCC 8042, and Lactobacillus casei ATCC 334.
# (§2) Stock cultures of each organism were transferred into MRS liquid medium. MRS medium (Difco 288130) was purchased from Becton, Dickinson and Company, Sparks, Md.
# (§3) The efficacy of different levels of the potassium salt of 9-DA was tested depending on the organism to inhibit the growth of various microorganisms indicated above.
# (§4) The selected organisms were incubated overnight in 5 ml of MRS medium at 35° C. and 250 rpm. MRS media with K-9-DA was prepared, along with a control of straight media (no antimicrobial added). The concentrated antimicrobial agents were diluted with the appropriate media required for the respective microorganisms, to reach the required concentrations for the studies as indicated below. The antimicrobial agents were added by weight/volume percent on an ‘as 9-DA’ basis to the media. The purity of the antimicrobial agent (99% for K-9-DA) was taken into account. The pH of the medium was not adjusted. The target for initial cell density was 10^5 to 10^6 cfu/ml. […] OD600 readings were taken at 0, 4, 17, 23 and 47 hours. […]
# [2] = system: microorganisms of Table 15 with the exception of Bacillus licheniformis; assay: Growth inhibition in MRS medium (OD600), summary over organisms; type: cell-based; conditions: all concentrations tested
# Procedure: as §1, §2, §3, §4
# [3] = system: Pediococcus acidolactici ATCC 8042; assay: Growth inhibition in MRS medium at various pH levels (OD600); type: cell-based, Pediococcus acidilactici; conditions: 0.05% w/v (as 9-DA)
# Procedure: (§5) Efficacy of potassium salt of 9-DA were tested at various pH levels against the following: Bacillus cereus ATCC 14579, Pediococcus acidolactici ATCC 8042, Pseudomonas straminea ATCC 33636, and Lactobacillus casei ATCC 334. Stock cultures of each organism were transferred into MRS liquid medium. MRS medium (Difco 288130) was purchased from Becton, Dickinson and Company, Sparks, Md. The efficacy of the potassium salt of 9-DA (K-9-DA) was tested at different concentrations and pH levels, including 6.75 (unadjusted), 7.5, and 8.5. The selected organisms were incubated overnight in 5 ml of MRS medium at 35° C. and 250 rpm. MRS media with K-9-DA was prepared, along with a control of straight media (no antimicrobial added). The antimicrobial agent was added by weight/volume percent to the media. The purity, 99% for K-9-DA, was taken into account. The pH adjustments to 7.5 and 8.5 were done with 50% potassium hydroxide. Filter sterilization was used instead of autoclaving to prevent adverse chemical reactions at higher pH and temperature. The target for initial cell density was 10^5 to 10^6 cfu/ml. According to the McFarland standard, 0.01 OD600 is equivalent to approximately 10^8 cfu/ml. To achieve the proper dilution, 30 μl of overnight culture diluted to 0.01 OD600 was added to the 3 ml of media in each tube. The tubes were incubated at 35° C. with the exception of Pseudomonas strains which were incubated at 30° C. Treatments were all done in duplicate. All strains were shaken at 250 rpm, with the exception of Lactobacillus (because it is anaerobic). OD600 readings were taken at 0, 19, 25.5, 42.5 and 49 hours.
# “Percent reduction in growth vs. control” was defined as (1−abs. of treatment/abs. of control)×100.
# [4] = system: Lactobacillus casei ATCC 334; assay: as above; type: cell-based; conditions: 0.075% w/v (as 9-DA)
# Procedure: as §5, with “The tubes were incubated at 35° C. with the exception of Pseudomonas strains which were incubated at 30° C. Treatments were all done in duplicate. All strains were shaken at 250 rpm, with the exception of Lactobacillus (because it is anaerobic).” left out, “hours. […]” for “hours.”
# [5] = system: Escherichia coli 0157:H7 ATCC 43895; assay: MIC and MBC determination in Mueller-Hinton Broth; type: cell-based; conditions: 37±2° C., 20-24 hours
# Procedure: Efficacy of 9-decenoic acid and the methyl ester of 9-decenoic acid against Pseudomonas aeruginosa ATCC 15442, Escherichia coli 0157:H7 ATCC 43895 and Candida albicans ATCC 10231 was measured through the determination of the minimum inhibitory concentration (MIC) and minimum bacteriocidal concentration (MBC) using the procedures in the Federal Register, June 1994 and the present NCCLS M11-A4 protocol.
# Stock cultures of each organism were transferred onto Mueller-Hinton Agar (MHA) plates and incubated for 24±2 hours at 37±2° C. On the day of the test, the top of at least three to five well-isolated colonies were transferred via wire loop to a tube containing 4 to 5 ml of Trypticase Soy Broth (TSB). The TSB culture was incubated for 2 to 6 hours and turbidity was adjusted with sterile saline to achieve the turbidity of the 0.5 McFarland Standard.
# The concentrated 9-decenoic acid was diluted 1:40 in Mueller-Hinton Broth (MHB) to yield a 2.5% stock solution. The test solution of the methyl ester of 9-decenoic acid was formulated in the same manner. For each organism, 12 dilutions of the 9-decenoic acid and the methyl ester of 9-decenoic acid in MHB were prepared ranging from 0.2500 to 0.0005%. A 2-ml aliquot of appropriately diluted 9-decenoic acid or the methyl ester of 9-decenoic acid solution was placed in each tube. Each tube was inoculated with 0.05 ml of a 1:10 dilution of one challenge organism. Tubes were incubated at 37±2° C. for 20-24 hours and observed for growth or no growth. […] Controls were run for sterility, viability and organism confirmation. It was determined that all cultures were viable and pure.
# The MBC was defined as the concentration of 9-decenoic acid or the methyl ester of 9-decenoic acid that completely eradicated viable organisms from the test system.
# [6] = system: Pseudomonas aeroginosa, ATCC 15442; assay: Time-Kill Procedure (ASTM), rate of kill; type: cell-based, Pseudomonas aeruginosa; conditions: all concentrations (0.01, 0.05 and 0.1%), after 10 minutes
# Procedure: (§6) The rate of kill for these organisms upon exposure to 9-decenoic acid was determined using the American Society for Testing and Materials (ASTM) procedure entitled “Standard Test Method for the Assessment of Microbiocidal Activity of Test Materials Using a Time-Kill Procedure”, October 1998. This procedure incorporates the recommendations described in the “Manual of Clinical Microbiology,”5th ed., edited by A. B. Balows et al., ASM, Washington, and is directed by the Federal Register, June 1994.
# (§7) Stock cultures were transferred into TSB and incubated for 18-24 hours at 37±2° C. A second transfer was made onto TSA plates and were incubated for 18-24 hours at 37±2° C. The plates were removed from incubation and the bacterial growth washed from the agar surface using Butterfield's Phosphate Buffered Dilution Water (PBDW). The bacterial suspension was adjusted to contain approximately 10^8 Colony Forming Units (CFU)/ml with PBDW using spectrophometric methods extant in the laboratory.
# (§8) The concentrated 9-decenoic acid was diluted 1:40 in filter sterilized isopropanol to yield a 2.5% stock solution. Subsequent dilutions to the 9-decenoic acid stock solutions were made with sterile Deionized Water (DI) to achieve concentrations of 0.1%, 0.05%, 0.01%, and 0.001%. The pH was determined for each dilution; pH values ranged from 4.4-4.1. Additionally, the 9-decenoic acid stock solution was adjusted to pH 7 with 1 N NaOH and serially diluted with sterile DI to achieve concentrations of 1.0%, 0.75% and 0.5%.
# (§9) Compliant with the ASTM procedure cited, for each challenge microorganism a 9.9 ml aliquot of the prepared 9-decenoic acid suspension was added to a sterile tube. A 0.1 ml aliquot of the standardized inoculum was added to the 9-decenoic acid solution representing the start of the test exposure. The inoculated 9-decenoic acid solution was immediately mixed thoroughly. The inoculated suspension was held at room temperature for 0.5, 2, 5, 7 and 10 minute exposure times for tests run at ˜pH 4. The pH 7 tests were held at room temperature for 0.5 and 2 minutes.
# (§10) At each exposure sample time, a 1.0 ml aliquot of the inoculated 9-decenoic acid suspension was transferred to 9.0 ml of D/E Neutralizing Broth. Additional ten-fold serial dilutions were made in PBDW and plated in duplicate on TSA. All plates were incubated for 48 hours at 37±2° C. and visually examined for growth. The plates are enumerated, recorded and log kill determined for each time point.
# (§11) The following study controls were conducted: culture purity, neutralizer sterility, initial suspension population, test population, neutralization verification and a negative control using isopropanol. Culture purity was verified by performing a streak plate for isolated colonies on the each culture used. All cultures were determined to be pure based on consistent colony morphology typical for the test organism. The neutralizer sterility was confirmed by no growth in an incubated sample.
# (§12) The population of the initial and test culture were determined by serial dilution, plating and enumerating after incubation. The initial suspension were determined to be ≧10^4 CFU/ml. The test culture population was used for calculation of the log reduction achieved at each time point.
# (§13) Neutralization effectiveness was verified by a filtration test. For each organism, four tubes were prepared with 9 ml D/E Neutralizing Broth and fewer than 100 CFU/ml of the organism. A 1.0 ml aliquot of prepared 9-decenoic acid was added to each tube. Immediately, the entire contents of 2 tubes were filtered through a filtration apparatus and rinsed with sterile diluent. The remaining 2 tubes were held at room temperature for 30 minutes and then the entire contents were filtered using the same procedure. The filters were aseptically transferred to TSA plates and incubated for 48 hours at 37±2° C. and visually examined for growth.
# (§14) This control was inoculated, subcultured and incubated as in the test procedure.
# [7] = system: Candida albicans, ATCC 10231; assay: Time-Kill Procedure (ASTM), rate of kill; type: cell-based; conditions: all concentrations (0.01, 0.05 and 0.1%), after 10 minutes
# Procedure: as §6, §7, §8, §9, §10, §11, §12, §13, §14
# [8] = system: Escherichia coli 0157:H7, ATCC 43895; assay: Time-Kill Procedure (ASTM), rate of kill; type: cell-based; conditions: all concentrations (0.01, 0.05 and 0.1%), after 10 minutes
# Procedure: as §6, §7, §8, §9, §10, §11, §12, §13, §14
# [9] = system: Aureobasidium pullulans ATCC 12536; assay: Dry film preservative test, growth on PDA agar surface; type: cell-based; conditions: 0.5% in PDA agar
# Procedure: (§15) The efficacy of 9-decenoic acid and the methyl ester of 9-decenoic acid as a dry film preservative was determined through the incubation of Trichoderma virens ATCC 9645, Cladosporium cladosporiodes ATCC 16022 and Aureobasidium pullulans ATCC 12536 in the presence of varying concentrations of 9-decenoic acid or the methyl ester of 9-decenoic acid on an agar surface.
# (§16) Fungal spores were hydrated overnight in 0.1% Tween 80 and then plated on Potato Dextrose Agar (PDA) and incubated at 25-30° C. for 6 days. The spores were washed from the surface with 5 mls of 0.1% Tween 80 and enumerated.
# (§17) PDA plates with prepared according to the manufactures instructions through sterilization. The agar was tempered to approximately 50° C. and filter sterilized 9-decenoic acid was added to achieve concentrations of 0.1, 0.5 and 1.0% in the agar. Additionally, one concentration of the methyl ester of 9-decenoic acid (0.5%) was also prepared. The agar was thoroughly mixed and poured into sterile petri plates and allowed to solidify.
# (§18) The agar plates were inoculated with the spore solution to achieve 10^2 spores/plate. The plates were incubated at 25-30° C. in Ziploc bags with a wet paper towel to keep the moisture level high. The plates were examined for growth after 4, 7, 16, 24 and 31 days. The percent coverage of growth on the agar surface was recorded at each sample point.
# [10] = system: Cladosporium cladosporiodes ATCC 16022; assay: as above; type: cell-based; conditions: 0.5% in PDA agar
# Procedure: as §15, §16, §17, §18
# [11] = system: Trichoderma virens ATCC 9645; assay: as above; type: cell-based; conditions: 0.5% in PDA agar
# Procedure: as §15, §16, §17, §18
compound,measurement,setting,value
"C=CCCCCCCCC(=O)O.[K] [K9-DA, Potassium-9 Decenoic Acid]",% reduction in growth vs. control,[1],88.63%
same,reduction in growth when compared to controls,[2],≥ 95%
same,% reduction in growth vs. control,[3]; Non-pH adjusted (6.75),90.6%
same,% reduction in growth vs. control,[3]; pH 7.5,93.2%
same,% reduction in growth vs. control,[3]; pH 8.5,95.6%
same,% reduction in growth vs. control,[4]; Non-pH adjusted (6.75),88.4%
same,% reduction in growth vs. control,[4]; pH 7.5,91.7%
"C=CCCCCCCCC(=O)OC [Methyl ester of 9-decenoic acid, methyl ester of 9-decenoic acid]",MIC,[5]; Mueller-Hinton Broth,0.1250%
same,MBC,[5]; no-growth tubes subcultured on TSA,0.1250%
same,log reduction in time kill test,[6],< 1 log
same,log reduction in time kill test,[7],< 1 log
same,log reduction in time kill test,[8],< 1 log
same,time up to which growth of the culture was significantly inhibited,[9],16 days
same,Percentage coverage of agar surface,[9]; 4 days,0%
same,Percentage coverage of agar surface,[9]; 7 days,2.5%
same,Percentage coverage of agar surface,[9]; 16 days,10%
same,Percentage coverage of agar surface,[9]; 24 days,50%
same,Percentage coverage of agar surface,[9]; 31 days,75%
same,time up to which growth of the culture was significantly inhibited,[10],4 days
same,Percentage coverage of agar surface,[10]; 4 days,10%
same,Percentage coverage of agar surface,[10]; 7 days,50%
same,Percentage coverage of agar surface,[10]; 16 days,50%
same,Percentage coverage of agar surface,[10]; 24 days,50%
same,Percentage coverage of agar surface,[10]; 31 days,50%
same,time up to which growth of the culture was significantly inhibited,[11],4 days
same,Percentage coverage of agar surface,[11]; 4 days,60%
same,Percentage coverage of agar surface,[11]; 7 days,95%
same,Percentage coverage of agar surface,[11]; 16 days,100%
same,Percentage coverage of agar surface,[11]; 24 days,100%
same,Percentage coverage of agar surface,[11]; 31 days,100%
